Source: patent US20130310625A1, “VELIPARIB IN COMBINATION WITH WHOLE BRAIN RADIATION THERAPY FOR THE TREATMENT OF BRAIN METASTASES” (AbbVie Inc., priority 2012, published 2013)
Entries after “also recorded” stand apart in the source; their conditions may differ.

Experiments:
[1] = nonhuman primate model (Muscal et al. 2010); cited from earlier work
[2] = Phase 1 pharmacokinetics of veliparib administered concurrently with WBRT in patients with brain metastases; assay type: in vivo, human
Experimental: (§1) This example is a Phase 1, multicenter, dose-escalation study evaluating the safety, tolerability and pharmacokinetics of veliparib administered concurrently with conventional WBRT in subjects with solid primary tumors metastatic to the brain.
(§2) Patients received WBRT delivered in 2.5 Gy fractions once a day (QD) for a total of 15 fractions or WBRT delivered at 3.0 Gy fractions QD for a total of 10 fractions.
(§3) Veliparib dose-escalation began at 10 mg and increased to 20, 30, 50, 80, 100, 150, 200, and 300 mg twice a day (BID) through out the entire course of WBRT (Table 2); the final WBRT fraction was followed by 1 extra day of veliparib.
To determine PK of veliparib, intensive PK sampling was performed on Day 1 of the WBRT schedules (15 and 10 day) at the following time points: 0, 30, 1, 2, 6 and 24 hours. PK as was also performed on Day 6 for both WBRT schedules at the following time points: 0, 30 min, 1, 2, and 6 For the 15 Day schedule sampling was performed on Day 15 at 0, 30 min, 1, 2 and 6 hours. For the 10 day schedule only a 0 hour sample was collected. Post treatment samples were collected 24-72 hours after the last dose of veliparib for both WBRT schedules.

[3] = Phase 1 safety and tolerability of veliparib with WBRT (AEs by NCI CTCAE v3.0, DLTs); assay type: in vivo, human
Experimental: as §1, §2, §3
AEs were assessed by NCI CTCAE v3.0.

[4] = preclinical study; cited from earlier work
brain metastases = conditions: radio-sensitizer added to WBRT, randomized controlled studies; cited from earlier work
[5] = N = 66, possibly or probably related to veliparib

SMILES: C[C@]1(c2nc3c(C(N)=O)cccc3[nH]2)CCCN1 [Veliparib, 2-[(2R)-2-methylpyrrolidin-2-yl]-1H-benzimidazole-4-carboxamide]
- level in CSF [1]: measured in CSF in a range that has been shown to inhibitor PARP activity in vivo in humans
- Increase in veliparib exposure (Cmax and AUC) with increase in veliparib dose ([2]; 10 to 150 mg BID dose range): approximately dose-proportional
- veliparib accumulation following BID dosing ([2]; Cmax and AUC on Day 1, Day 6 and Day 15): minimal
- effect of food on veliparib oral bioavailability ([2]; exposure Day 6 (fasting) vs Day 15 (non-fasting)): no significant effect of food
- Tmax ([2]; human, plasma, oral veliparib BID with WBRT, patients): 1 to 2 h
- oral clearance ([2]; mean±SD, n=45, 10 to 150 mg BID dose range): 21.6 ± 14.2 L/h
- DLT ([3]; 150 mg veliparib BID, one patient each): grade 3 hypokalemia; also recorded: grade 3 hyponatraemia
- dose limiting toxicities (DLTs) ([3]; 10, 20, 30, 50, 80, 100, 200 and 300 mg dose levels): No dose limiting toxicities (DLTs) were observed
- Any Event, Any Grade, treatment-emergent AEs possibly or probably related to veliparib ([3]; N = 66): 37 (56) n (%)
- Any Event, Grade 3/4 AEs possibly or probably related to veliparib ([3]; N = 66): 10 (15) n (%)
- Decreased Appetite, Any Grade [3, 5]: 8 (12) n (%)
- Fatigue, Any Grade [3, 5]: 22 (33.3) n (%)
- Fatigue, Grade 3/4 [3, 5]: 3 (5) n (%)
- Nausea, Any Grade [3, 5]: 13 (19.7) n (%)
- Nausea, Grade 3/4 [3, 5]: 1 (2) n (%)
- Vomiting, Any Grade [3, 5]: 8 (12) n (%)
- patients with AEs leading to study drug discontinuation ([3]; all causes): 8 (12%) patients
- patients with AEs leading to study drug discontinuation possibly or probably related to veliparib ([3]; in vivo): 2 (3%) patients
- blood-brain barrier crossing and accumulation in brain tumor tissue [4]: shown to cross the blood-brain barrier and accumulate in brain tumor tissue

SMILES: O=c1[nH]c(=O)n([C@H]2C[C@H](O)[C@@H](CO)O2)cc1Br [bromodeoxyuridine]
- benefit in local brain tumor control or overall survival (brain metastases): failing to benefit

SMILES: Cc1cc(C)cc(NC(=O)Cc2ccc(OC(C)(C)C(=O)O)cc2)c1 [efaproxiral]
- benefit in local brain tumor control or overall survival (brain metastases): failing to benefit

SMILES: O=C(O)c1nn(Cc2ccc(Cl)cc2Cl)c2ccccc12 [lonidamine]
- benefit in local brain tumor control or overall survival (brain metastases): failing to benefit

SMILES: Cc1ncc([N+](=O)[O-])n1CCO [metronidazole]
- benefit in local brain tumor control or overall survival (brain metastases): failing to benefit

SMILES: COCC(O)Cn1ccnc1[N+](=O)[O-] (stereo not shown) [misonidazole]
- benefit in local brain tumor control or overall survival (brain metastases): failing to benefit

SMILES: CC(=O)[O-].CC(=O)[O-].CCc1c(CC)c2cc3nc(cnc4cc(OCCOCCOCCOC)c(OCCOCCOCCOC)cc4ncc4nc(cc1[n-]2)C(CCCO)=C4C)C(C)=C3CCCO.O.[Gd+3] [motexafin gadolinium]
- benefit in local brain tumor control or overall survival (brain metastases): failing to benefit
